Measured values taken from ChEMBL document CHEMBL2321831, “Design, synthesis, and biological evaluations of novel 7-[7-amino-7-methyl-5-azaspiro[2.4]heptan-5-yl]-8-methoxyquinolines with potent antibacterial activity against respiratory pathogens” (J Med Chem, 2013).
≈ marks a conversion by molar mass, not a printed value.

Experiments:
[1] = Drug recovery in cynomolgus monkey urine at 5 mg/kg, po after 24 hrs; format: ADME, organism-based, Macaca fascicularis; design: dose 5 mg/kg, route oral; conditions: read-out: Drug recovery
[2] = Cmax in Crj:CD rat serum at 5 mg/kg, po; format: ADME, organism-based; design: dose 5 mg/kg, route oral
[3] = AUC (0 to 8 hrs) in Crj:CD rat kidney at 5 mg/kg, po; format: ADME, organism-based; design: time < 8 hr, dose 5 mg/kg, route oral
[4] = Drug uptake in cynomolgus monkey serum at 5 mg/kg, iv after 5 mins; format: ADME, organism-based, Macaca fascicularis; design: dose 5 mg/kg, route intravenous; conditions: read-out: Drug uptake
[5] = Drug recovery in Crj:CD rat urine at 5 mg/kg, po after 24 hrs; format: ADME, organism-based; design: dose 5 mg/kg, route oral; conditions: read-out: Drug recovery
[6] = Drug recovery in cynomolgus monkey urine at 5 mg/kg, iv after 24 hrs; format: ADME, organism-based, Macaca fascicularis; design: dose 5 mg/kg, route intravenous; conditions: read-out: Drug recovery
[7] = AUC (0 to 8 hrs) in Crj:CD rat liver at 5 mg/kg, po; format: ADME, organism-based; design: time < 8 hr, dose 5 mg/kg, route oral
[8] = Bioavailability in cynomolgus monkey at 5 mg/kg, po; format: ADME, organism-based, Macaca fascicularis; conditions: in vivo
[9] = AUC (0 to 24 hrs) in cynomolgus monkey serum at 5 mg/kg, po; format: ADME, organism-based, Macaca fascicularis, Plasma; design: time < 24 hr, dose 5 mg/kg, route oral
[10] = AUC (0 to 8 hrs) in cynomolgus monkey serum at 5 mg/kg, iv; format: ADME, organism-based, Macaca fascicularis, Plasma; design: time < 8 hr, dose 5 mg/kg, route intravenous
[11] = Cmax in cynomolgus monkey serum at 5 mg/kg, po; format: ADME, organism-based, Macaca fascicularis; design: dose 5 mg/kg, route oral
[12] = AUC (0 to 8 hrs) in Crj:CD rat lung at 5 mg/kg, po; format: ADME, organism-based; design: time < 8 hr, dose 5 mg/kg, route oral
Streptococcus pneumoniae [13] = experiment: Antibacterial activity against penicillin-susceptible Streptococcus pneumoniae J24 after 18 hrs by microbroth dilution method; format: functional; conditions: J24, 18 h
Pseudomonas aeruginosa = experiment: Antibacterial activity against Pseudomonas aeruginosa PAO1 after 18 hrs by microbroth dilution method; format: functional; conditions: PAO1, 18 h
Streptococcus pneumoniae [14] = experiment: Antibacterial activity against quinolone, penicillin-resistant Streptococcus pneumoniae 104835 after 18 hrs by microbroth dilution method; format: functional; conditions: Streptococcus pneumoniae, 104835, 18 h
Moraxella catarrhalis = experiment: Antibacterial activity against Moraxella catarrhalis ATCC 25238 after 18 hrs by microbroth dilution method; format: functional; conditions: ATCC 25238, 18 h
Streptococcus pyogenes = experiment: Antibacterial activity against Streptococcus pyogenes G-36 after 18 hrs by microbroth dilution method; format: functional; conditions: G-36, 18 h
Klebsiella pneumoniae = experiment: Antibacterial activity against Klebsiella pneumoniae TYPE1 after 18 hrs by microbroth dilution method; format: functional; conditions: TYPE1, 18 h
hERG (KCNH2) [15] = target: T1, hERG (KCNH2) (Homo sapiens, UniProt Q12809); experiment: Inhibition of human ERG expressed in CHOK1 cells at 100 uM; format: cell-based; conditions: CHO-K1 cells expressing hERG
T1 sequence (Q12809 whole entry): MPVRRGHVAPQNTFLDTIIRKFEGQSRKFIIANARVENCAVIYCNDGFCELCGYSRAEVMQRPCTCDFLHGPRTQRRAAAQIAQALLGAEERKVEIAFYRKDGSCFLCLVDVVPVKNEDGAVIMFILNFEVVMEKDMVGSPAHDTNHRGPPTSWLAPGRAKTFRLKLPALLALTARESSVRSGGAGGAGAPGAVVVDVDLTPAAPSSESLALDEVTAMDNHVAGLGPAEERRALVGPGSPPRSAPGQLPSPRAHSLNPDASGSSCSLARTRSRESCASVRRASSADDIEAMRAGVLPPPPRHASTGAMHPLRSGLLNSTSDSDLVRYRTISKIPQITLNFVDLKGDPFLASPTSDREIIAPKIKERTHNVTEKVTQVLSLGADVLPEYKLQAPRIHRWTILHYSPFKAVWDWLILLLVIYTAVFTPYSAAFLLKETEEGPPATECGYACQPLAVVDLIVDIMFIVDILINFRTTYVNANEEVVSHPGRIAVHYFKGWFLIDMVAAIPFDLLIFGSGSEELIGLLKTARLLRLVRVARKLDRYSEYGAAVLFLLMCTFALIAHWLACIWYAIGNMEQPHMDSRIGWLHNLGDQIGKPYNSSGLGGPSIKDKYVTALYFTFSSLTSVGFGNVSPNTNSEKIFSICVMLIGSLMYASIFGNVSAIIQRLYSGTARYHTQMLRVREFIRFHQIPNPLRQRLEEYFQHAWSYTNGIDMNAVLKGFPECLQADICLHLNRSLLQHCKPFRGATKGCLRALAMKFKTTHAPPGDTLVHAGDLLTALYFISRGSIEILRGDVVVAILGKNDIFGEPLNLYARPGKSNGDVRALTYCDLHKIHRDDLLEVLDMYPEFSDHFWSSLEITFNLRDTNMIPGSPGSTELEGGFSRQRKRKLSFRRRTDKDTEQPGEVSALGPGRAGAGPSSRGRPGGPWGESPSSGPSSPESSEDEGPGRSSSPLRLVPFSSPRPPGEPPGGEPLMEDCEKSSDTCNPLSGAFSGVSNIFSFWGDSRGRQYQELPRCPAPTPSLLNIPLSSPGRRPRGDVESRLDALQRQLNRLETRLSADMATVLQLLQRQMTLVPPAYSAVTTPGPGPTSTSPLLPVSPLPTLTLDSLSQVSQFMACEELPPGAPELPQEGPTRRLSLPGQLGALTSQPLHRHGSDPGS

[16] = Chloroform-phosphate buffer apparent partition coefficient of the compound, P at pH 7.4
[17] = Ratio of AUC (0 to 8 hrs) in Crj:CD rat kidney to AUC (0 to 8 hrs) in Crj:CD rat serum at 5 mg/kg, po; format: ADME, organism-based; design: dose 5 mg/kg, route oral; conditions: read-out: Ratio AUC
Staphylococcus aureus [18] = experiment: Antibacterial activity against Staphylococcus aureus FDA 209-P after 18 hrs by microbroth dilution method; format: functional
[19] = Half life in cynomolgus monkey serum at 5 mg/kg, po; format: ADME, organism-based, Macaca fascicularis; design: dose 5 mg/kg, route oral
[20] = Plasma protein binding in human at 5 ug/mL by ultrafiltration method; format: ADME, cell-free; conditions: read-out: PPB (converted)
[21] = Aqueous solubility of the compound; format: physicochemical
[22] = AUC (0 to 8 hrs) in Crj:CD rat serum at 5 mg/kg, po; format: ADME, organism-based; design: time < 8 hr, dose 5 mg/kg, route oral
[23] = Primary phase half life in cynomolgus monkey serum at 5 mg/kg, iv; format: ADME, organism-based, Macaca fascicularis; design: dose 5 mg/kg, route intravenous; conditions: read-out: alphat1/2 (converted)
Haemophilus influenzae = experiment: Antibacterial activity against Haemophilus influenzae ATCC 49247 after 18 hrs by microbroth dilution method; format: functional; conditions: ATCC 49247, 18 h
hERG (KCNH2) [24] = target: T1, hERG (KCNH2); experiment: Inhibition of human ERG expressed in CHOK1 cells at 30 uM; format: cell-based; conditions: CHO-K1 cells expressing hERG
Escherichia coli = experiment: Antibacterial activity against Escherichia coli NIHJ after 18 hrs by microbroth dilution method; format: functional
Staphylococcus aureus [25] = experiment: Antibacterial activity against levofloxacin-resistant and methicillin-resistant Staphylococcus aureus 870307 after 18 hrs by microbroth dilution method; format: functional; conditions: Staphylococcus aureus, 870307, 18 h
Bacillus subtilis = experiment: Antibacterial activity against Bacillus subtilis IID 685 after 18 hrs by microbroth dilution method; format: functional; conditions: IID 685, 18 h
[26] = Ratio of AUC (0 to 8 hrs) in Crj:CD rat liver to AUC (0 to 8 hrs) in Crj:CD rat serum at 5 mg/kg, po; format: ADME, organism-based; design: dose 5 mg/kg, route oral; conditions: read-out: Ratio AUC
[27] = Ratio of AUC (0 to 8 hrs) in Crj:CD rat lung to AUC (0 to 8 hrs) in Crj:CD rat serum at 5 mg/kg, po; format: ADME, organism-based; design: dose 5 mg/kg, route oral; conditions: read-out: Ratio AUC
Streptococcus pneumoniae [28] = experiment: Antibacterial activity against levofloxacin-intermediate and levofloxacin-resistant Streptococcus pneumoniae after 18 hrs by microbroth dilution method; format: functional
[29] = tested on: Mycoplasmoides pneumoniae; experiment: Antibacterial activity against Mycoplasma pneumoniae ATCC 29085 after 18 hrs by microbroth dilution method; format: functional; conditions: ATCC 29085, 18 h
Chlamydia pneumoniae [30] = experiment: Antibacterial activity against Chlamydophila pneumoniae AR39 after 18 hrs by microbroth dilution method; format: functional; conditions: AR39, 18 h
Chlamydia pneumoniae [31] = experiment: Antibacterial activity against Chlamydophila pneumoniae CM-1 after 18 hrs by microbroth dilution method; format: functional; conditions: CM-1, 18 h
[32] = tested on: Mycoplasmoides pneumoniae; experiment: Antibacterial activity against Mycoplasma pneumoniae 18-1 after 18 hrs by microbroth dilution method; format: functional; conditions: 18-1, 18 h
[33] = tested on: Staphylococcus epidermidis; experiment: Antibacterial activity against Staphylococcus epidermidis 56500 after 18 hrs by microbroth dilution method; format: functional; conditions: Staphylococcus epidermidis, 56500, 18 h
[34] = Primary phase half life in cynomolgus monkey serum at 10 mg/kg, iv; format: ADME, organism-based, Macaca fascicularis; design: dose 10 mg/kg, route intravenous; conditions: read-out: alphat1/2 (converted)
Enterococcus faecalis = experiment: Antibacterial activity against Enterococcus faecalis ATCC 19433 after 18 hrs by microbroth dilution method; format: functional; conditions: ATCC 19433, 18 h
[35] = AUC (0 to 8 hrs) in cynomolgus monkey serum at 10 mg/kg, iv; format: ADME, organism-based, Macaca fascicularis, Plasma; design: time < 8 hr, dose 10 mg/kg, route intravenous
[36] = Plasma protein binding in human at 10 ug/mL by ultrafiltration method; format: ADME, cell-free; conditions: read-out: PPB (converted)
[37] = Drug uptake in cynomolgus monkey serum at 10 mg/kg, iv after 5 mins; format: ADME, organism-based, Macaca fascicularis; design: dose 10 mg/kg, route intravenous; conditions: read-out: Drug uptake
[38] = Drug recovery in cynomolgus monkey urine at 10 mg/kg, iv after 24 hrs; format: ADME, organism-based, Macaca fascicularis; design: dose 10 mg/kg, route intravenous; conditions: read-out: Drug recovery

Row | SMILES | dose excreted at 24 h [1] [%] | Cmax [2] [ng/mL] | AUC(0-t) at 8 h [3] [ng·h/mL] | concentration at 5 min [4] [ng/mL] | dose excreted at 24 h [5] [%] | AUC(0-t) at 8 h [7] [ng·h/mL] | AUC(0-t) at 24 h [9] [ng·h/mL] | Cmax [11] [ng/mL] | AUC(0-t) at 8 h [12] [ng·h/mL] | MIC (Streptococcus pneumoniae [13]) [µg/mL] | MIC (Pseudomonas aeruginosa) [µg/mL] | MIC (Streptococcus pneumoniae [14]) [µg/mL] | MIC (Moraxella catarrhalis) [µg/mL] | MIC (Streptococcus pyogenes) [µg/mL] | MIC (Haemophilus influenzae) [µg/mL] | MIC (Staphylococcus aureus [25]) [µg/mL] | MIC (Bacillus subtilis) [µg/mL] | MIC50 (Streptococcus pneumoniae [28]) [µg/mL] | MIC80 (Streptococcus pneumoniae [28]) [µg/mL] | MIC90 (Streptococcus pneumoniae [28]) [µg/mL] | also measured
1 | COc1c(N2C[C@@H]3CCCN[C@@H]3C2)c(F)cc2c(=O)c(C(=O)O)cn(C3CC3)c12.Cl.O [MOXIFLOXACIN HYDROCHLORIDE HYDRATE] | 8.1 | 1490 | 30300 | 2360 | 25.7 | 24500 | 6630 | 1030 | 15200 |  |  |  |  |  |  |  |  |  |  |  | dose excreted at 24 h [6]: 11%; bioavailability [8]: 61%; AUC(0-t) at 8 h [10]: 10900 ng·h/mL
2 | COc1c(N2C[C@@H](N)C3(CC3)C2)c(F)cc2c(=O)c(C(=O)O)cn([C@@H]3C[C@@H]3F)c12.Cl.O | 41 | 816 | 19300 | 4750 | 23.1 | 15000 | 9450 | 1270 | 6770 | 0.05 | 0.2 | 0.2 | 0.012 | 0.05 | < 0.003 | 0.39 | 0.05 |  |  |  | MIC (Klebsiella pneumoniae): 0.05 µg/mL; inhibition at 100 µM (hERG (KCNH2) [15]): 14.1%; P [16]: 8.8; Kp [17]: 12.2; dose excreted at 24 h [6]: 50.7%; MIC (Staphylococcus aureus [18]): 0.012 µg/mL; half-life [19]: 3.1 h; fraction unbound at 5 ug/mL [20]: 0.582; solubility [21]: 446 µg/mL; AUC(0-t) at 8 h [22]: 1590 ng·h/mL; bioavailability [8]: 49%; half-life [23]: 2.1 h; inhibition at 30 µM (hERG (KCNH2) [24]): 5.2%; AUC(0-t) at 8 h [10]: 19400 ng·h/mL; MIC (Escherichia coli): 0.006 µg/mL; Kp [26]: 9.4; Kp [27]: 4.3
3 | CC1(C)S[C@@H]2[C@H](NC(=O)[C@H](N)c3ccc(O)cc3)C(=O)N2[C@H]1C(=O)O [AMOXICILLIN] |  |  |  |  |  |  |  |  |  |  |  |  |  |  |  |  |  | 0.06 (≈ 0.164 µM) | 2 (≈ 5.47 µM) | 2 (≈ 5.47 µM) | 
4 | C[C@H]1NCc2cc(-c3ccc4c(=O)c(C(=O)O)cn(C5CC5)c4c3OC(F)F)ccc21 [GARENOXACIN] |  |  |  |  |  |  |  |  |  |  |  |  |  |  |  |  |  | 0.25 (≈ 0.586 µM) | 0.5 (≈ 1.17 µM) | 1 (≈ 2.35 µM) | MIC [29]: 0.06 µg/mL (≈ 0.141 µM); MIC (Chlamydia pneumoniae [30]): 0.063 µg/mL (≈ 0.148 µM); MIC (Chlamydia pneumoniae [31]): 0.016 µg/mL (≈ 0.0375 µM); MIC [32]: 0.12 µg/mL (≈ 0.281 µM)
5 | C[C@H]1COc2c(N3CCN(C)CC3)c(F)cc3c(=O)c(C(=O)O)cn1c23.C[C@H]1COc2c(N3CCN(C)CC3)c(F)cc3c(=O)c(C(=O)O)cn1c23.O [LEVOFLOXACIN] | 73.9 | 1470 | 19300 |  | 80 | 16400 | 15200 | 1920 | 5570 | 0.78 | 0.39 | > 6.25 | 0.025 | 0.78 | 0.012 | > 6.25 | 1.56 | 8 | 16 | 16 | MIC [33]: 0.39 µg/mL; MIC [29]: 1 µg/mL; MIC (Chlamydia pneumoniae [30]): 0.5 µg/mL; MIC (Chlamydia pneumoniae [31]): 0.5 µg/mL; MIC [32]: 2 µg/mL; MIC (Klebsiella pneumoniae): 0.05 µg/mL; inhibition at 100 µM (hERG (KCNH2) [15]): 4.2%; half-life [34]: 3.2 h; MIC (Enterococcus faecalis): 0.78 µg/mL; AUC(0-t) at 8 h [35]: 15500 ng·h/mL; fraction unbound at 10 ug/mL [36]: 0.678; MIC (Staphylococcus aureus [18]): 0.1 µg/mL; concentration at 5 min [37]: 4170 ng/mL; half-life [19]: 3.5 h; AUC(0-t) at 8 h [22]: 3410 ng·h/mL; inhibition at 30 µM (hERG (KCNH2) [24]): -0.9%; dose excreted at 24 h [38]: 80.7%
6 | O=C(O)c1cn(C2CC2)c2cc(N3CCNCC3)c(F)cc2c1=O [CIPROFLOXACIN] |  |  |  |  |  |  |  |  |  | 0.78 (≈ 2.35 µM) | 0.05 (≈ 0.151 µM) | > 6.25 | 0.025 (≈ 0.0754 µM) | 1.56 (≈ 4.71 µM) | 0.006 (≈ 0.0181 µM) | > 6.25 | 3.12 (≈ 9.42 µM) | 16 (≈ 48.3 µM) | 32 (≈ 96.6 µM) | 32 (≈ 96.6 µM) | MIC (Escherichia coli): < 0.003 µg/mL
